Laboratory results as given in patent publication US20170252383A1, “AGENT FOR PROMOTING GROWTH OF NONPATHOGENIC ORAL INDIGENOUS BACTERIA OR AGENT FOR IMPROVING ORAL BACTERIAL FLORA, AND COMPOSITION FOR ORAL USE” (HOKUTO CORPORATION, priority 2014, published 2017).

Legend:
Test in all cases: Growth-promoting effects on normal bacteria in oral cavity (Experimental Example 2)
Assay type in all cases: cell-based
Settings in all cases: powder 0.01% in distilled water (triclosan concentration not printed), aerobic 37° C., 12 hours, turbidity relative to control without sample
[1] = test system: Streptococcus gordonii ATCC 10558
Protocol: (§1) Dry-ground mushroom powder suspensions obtained by dispersing the dry-ground powders of various mushrooms prepared as described above to a concentration of 0.01% in distilled water, and 4% aqueous solutions of the various mushroom extracts obtained as described above, were each added as samples in 100 μL portions to 96-well plates.
(§2) Next, 100 μL of suspensions of the bacteria shown in Tables 1 and 2 were added to the dry-ground mushroom powder suspensions and mushroom extracts serving as these samples, and the bacteria were cultured aerobically at 37° C. for 12 hours. The bacterial suspensions used were prepared by pre-culturing the bacteria in a tryptic soy medium (TS medium; Becton and Dickinson), and inoculating the pre-cultured bacteria to a 2% concentration in a 2-fold concentration TS medium.
(§3) Bacterial proliferation was measured, calculated and evaluated in the same way as in Experimental Example 1.
(§4) The indigenous oral bacteria used in evaluation were of the following three species purchased from the ATCC.
Streptococcus gordonii ATCC 10558 (S. gordonii)
(§5) Prior to turbidity measurement, the culture fluids were stirred by shaking the plates.

[2] = test system: Streptococcus mitis ATCC 47456
Protocol: as §1, §2, §3, §4
Streptococcus mitis ATCC 47456 (abbreviated below as S. mitis)
as §5

[3] = test system: Streptococcus oralis ATCC 9811
Protocol: as §1, §2, §3, §4
Streptococcus oralis ATCC 9811 (abbreviated below as S. oralis)
as §5

## Oc1cc(Cl)ccc1Oc1ccc(Cl)cc1Cl [Triclosan, triclosan]
[1]
  Degree of bacterial growth due to dry-ground powders, S. gordonii: 0
[1]; listed as triclosan
  Degree of bacterial growth due to dry-ground powders, S. gordonii: suppressed growth
[2]
  Degree of bacterial growth due to dry-ground powders, S. mitis: 0
[2]; listed as triclosan
  Degree of bacterial growth due to dry-ground powders, S. mitis: suppressed growth
[3]
  Degree of bacterial growth due to dry-ground powders, S. oralis: 0
[3]; listed as triclosan
  Degree of bacterial growth due to dry-ground powders, S. oralis: suppressed growth
